Reference: ChEMBL document CHEMBL1142530, “Chalcogenopyrylium dyes as inhibitors/modulators of P-glycoprotein in multidrug-resistant cells” (Bioorg Med Chem, 2008)
Activity calls are given as the source filed them. The rule behind the calls is not given here.

Assays:
[1] = Octanol-water partition coefficient, log P after 5 hrs by shake flask method; format: physicochemical
[2] = organism: Mus musculus; assay: Inhibition of verapamil-induced residual ATPase activity in lipid activated mouse P-glycoprotein mdr3 cys-less mutant assessed as ATP hydrolysis per ug of protein
[3] = Inhibition of verapamil-induced ATPase activity in lipid activated mouse P-glycoprotein mdr3 cys-less mutant assessed as ATP hydrolysis per ug of protein
[4] = system: MDCK-II; assay: Enhancement of calcein-AM uptake in MDCK2 cells over expressing MDR1 after 20 mins; format: functional, cell-based; details: Canis lupus familiaris
[5] = system: MDCK-II; assay: Apparent permeability from basolateral to apical side of MDCK2 cells over expressing MDR1 at 5 uM after 1 hr; format: functional, cell-based; details: Canis lupus familiaris
[6] = system: MDCK-II; assay: Efflux ratio of permeability from basolateral to apical side to apical to basolateral side in MDCK2 cells over expressing MDR1 to permeability from basolateral to apical side to apical to basolateral side in MDCK2 cells over expressing MDR1 in presence of 25 uM LSN335984; format: functional, Canis lupus familiaris
[7] = biological target: T1, MDR1 (ABCB1, P-glycoprotein) (Homo sapiens, UniProt P08183); assay: (§1) Inhibition of MDR1 overexpressed in MDCK cells at 25 uM relative to LSN335984; format: cell-based; details: dog, MDCK-MDR1
T1 sequence (P08183 whole entry): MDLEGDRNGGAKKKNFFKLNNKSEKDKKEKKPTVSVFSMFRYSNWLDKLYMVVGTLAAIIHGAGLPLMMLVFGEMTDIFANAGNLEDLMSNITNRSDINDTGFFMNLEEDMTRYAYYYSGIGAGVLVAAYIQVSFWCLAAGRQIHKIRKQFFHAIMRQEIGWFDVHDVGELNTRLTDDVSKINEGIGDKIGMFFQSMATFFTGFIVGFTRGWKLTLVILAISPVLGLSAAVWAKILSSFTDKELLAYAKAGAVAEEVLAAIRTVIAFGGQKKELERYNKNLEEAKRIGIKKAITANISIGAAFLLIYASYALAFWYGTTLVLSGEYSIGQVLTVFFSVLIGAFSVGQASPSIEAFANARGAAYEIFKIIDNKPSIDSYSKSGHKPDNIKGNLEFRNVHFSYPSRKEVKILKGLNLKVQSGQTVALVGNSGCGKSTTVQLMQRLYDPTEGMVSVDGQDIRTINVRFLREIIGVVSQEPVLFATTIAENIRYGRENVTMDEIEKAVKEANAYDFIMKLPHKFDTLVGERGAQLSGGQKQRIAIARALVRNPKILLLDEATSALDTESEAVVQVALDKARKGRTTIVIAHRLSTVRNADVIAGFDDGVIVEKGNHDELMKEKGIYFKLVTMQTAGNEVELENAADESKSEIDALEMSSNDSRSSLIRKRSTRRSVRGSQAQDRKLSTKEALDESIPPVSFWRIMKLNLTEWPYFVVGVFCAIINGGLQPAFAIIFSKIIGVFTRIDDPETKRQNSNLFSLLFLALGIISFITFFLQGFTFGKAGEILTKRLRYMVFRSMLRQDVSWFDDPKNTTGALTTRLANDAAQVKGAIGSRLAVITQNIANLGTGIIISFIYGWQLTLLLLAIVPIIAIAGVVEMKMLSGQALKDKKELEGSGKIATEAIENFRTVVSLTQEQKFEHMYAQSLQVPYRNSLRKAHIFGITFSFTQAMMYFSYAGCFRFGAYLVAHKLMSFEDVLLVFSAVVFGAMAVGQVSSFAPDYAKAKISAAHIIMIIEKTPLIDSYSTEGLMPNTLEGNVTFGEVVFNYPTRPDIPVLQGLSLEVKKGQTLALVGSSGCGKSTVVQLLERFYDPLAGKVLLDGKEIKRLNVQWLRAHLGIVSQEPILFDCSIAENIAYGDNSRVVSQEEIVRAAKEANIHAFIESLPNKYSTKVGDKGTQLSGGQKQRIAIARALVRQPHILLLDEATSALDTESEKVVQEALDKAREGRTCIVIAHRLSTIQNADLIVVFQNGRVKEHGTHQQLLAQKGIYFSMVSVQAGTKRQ

[8] = system: MDCK-II; assay: Apparent permeability from basolateral to apical side of MDCK2 cells over expressing MDR1 after 1 hr; format: functional, cell-based; details: Canis lupus familiaris
[9] = system: MDCK-II; assay: Apparent permeability from apical to basolateral side of MDCK2 cells over expressing MDR1 at 5 uM after 1 hr in presence of 25 uM LSN335984; format: functional, cell-based; details: Canis lupus familiaris
[10] = system: DNA; assay: Binding affinity to calf thymus DNA relative to control; format: nucleic-acid assay; details: Bos taurus
[11] = system: MDCK-II; assay: Passive apparent permeability across MDCK2 cells over expressing MDR1 in presence of 25 uM LSN335984 after 1 hr; format: functional, cell-based; details: Canis lupus familiaris
[12] = biological target: T1, MDR1 (ABCB1, P-glycoprotein); assay: Inhibition of MDR1 overexpressed in MDCK cells at 5 uM relative to LSN335984; format: cell-based; details: dog
[13] = Binding affinity to P-glycoprotein in presence of Escherichia coli sham lipids
[14] = system: MDCK-II; assay: Apparent permeability from basolateral to apical side of MDCK2 cells over expressing MDR1 at 5 uM after 1 hr in presence of 25 uM LSN335984; format: functional, cell-based; details: Canis lupus familiaris
[15] = organism: Mus musculus; assay: Inhibition of verapamil-induced ATPase activity in lipid activated mouse P-glycoprotein mdr3 cys-less mutant assessed as ATP hydrolysis at 100 uM
[16] = organism: Mus musculus; assay: Inhibition of verapamil-induced specific ATPase activity in lipid activated mouse P-glycoprotein mdr3 cys-less mutant assessed as ATP hydrolysis per ug of protein at 100 uM
[17] = system: MDCK-II; assay: Apparent permeability from apical to basolateral side of MDCK2 cells over expressing MDR1 after 1 hr; format: functional, cell-based; details: Canis lupus familiaris
[18] = (§2) Activity of verapamil-dependent ATPase in lipid activated mouse P-glycoprotein mdr3 cys-less mutant
[19] = organism: Mus musculus; assay: as §2
[20] = biological target: ATP-dependent translocase ABCB1 (Homo sapiens, UniProt P08183); assay: as §1; format: cell-based; details: dog, mdck, 25 µM
ATP-dependent translocase ABCB1, sequence (P08183 whole entry): as above

[21] = system: MDCK-II; assay: Inhibition of [3H]vinblastine transport in MDCK2 cells over expressing MDR1 assessed as [3H]vinblastine accumulation after 2.5 mins; format: functional, cell-based; details: Canis lupus familiaris
[22] = organism: Mus musculus; assay: Activity of verapamil-dependent ATPase in lipid activated cys-less mouse mdr3 P-glycoprotein assessed per ug of protein
[23] = Inhibition of [3H]vinblastine transport in human PEAK stable cells over expressing MDR1 assessed as [3H]vinblastine accumulation after 2.5 mins; format: functional, cell-based

| SMILES | logP at 5 h [1] | Activity [2] [nmol/min] | IC50 [3] [µM] | Activity [16] [nmol/min] | EC50 [4] [µM] | permeability [5] [%] | Ratio [6] | inhibition at 25 µM [7] [%] | permeability [8] [×10⁻⁶ cm/s] | permeability [9] [%] | Papp [11] [×10⁻⁶ cm/s] | inhibition at 5 µM [12] [%] | permeability [14] [%] | permeability [17] [×10⁻⁶ cm/s] | other results |
| --- | --- | --- | --- | --- | --- | --- | --- | --- | --- | --- | --- | --- | --- | --- | --- |
| c1ccc(-c2cc(-c3ccc(N4CCOCC4)cc3)cc(-c3ccc(N4CCOCC4)cc3)[s+]2)cc1 | 2.1 | 1 | 30 | – | – | – | – | – | – | – | – | – | – | – | – |
| Nc1ccc(-c2cc(-c3ccc(N4CCOCC4)cc3)cc(-c3ccc(N4CCOCC4)cc3)[s+]2)cc1 | 2.1 | 0.7 | 11 | – | – | – | – | – | – | – | – | – | – | – | – |
| CN(C)c1ccc(-c2cc(-c3ccc(N)cc3)[se+]c(-c3ccc(N)cc3)c2)cc1.F[P-](F)(F)(F)(F)F | 2.2 | 2.5 | > 100 | – | 25 | 12 | 17 | 29 | 4.5 | 14 | 0.28 | 6 | 10 | 0.34 | Activity [15]: inactive |
| Cc1cc(C)c(-c2cc(-c3ccc(N(C)C)cc3)[te+]c(-c3ccc(N(C)C)cc3)c2)c(C)c1.F[P-](F)(F)(F)(F)F | 2.4 | 0.4 | 1.2 | 0.44 | 5.4 | 3 | 1.4 | – | 0.42 | 7 | 0.48 | 32 | 5 | 0.85 | Ki [18]: 0.04 µM; Km [19]: 16 µM; inhibition (INH) [20]: 230%; IC50 [21]: 9.6 µM; Vmax [22]: 2.67 nmol/min; IC50 [23]: 4.3 µM |
| CN(C)c1ccc(-c2cc(-c3ccccc3)[se+]c(-c3ccc(N)cc3)c2)cc1.F[P-](F)(F)(F)(F)F | 0.8 | – | – | – | 20 | 18 | 57 | 22 | 12 | 18 | 0.28 | 5 | 13 | 0.35 | – |
| CN(C)c1ccc(-c2cc(-c3cccs3)cc(-c3ccc(N(C)C)cc3)[te+]2)cc1 | 2.2 | 0.9 | 7.9 | – | – | – | – | – | – | – | – | – | – | – | – |
| CN(C)c1ccc(-c2cc(-c3ccc(N)cc3)[s+]c(-c3ccc(N(C)C)cc3)c2)cc1.F[P-](F)(F)(F)(F)F | 2.2 | 1.6 | 0.7 | 0.93 | 35 | 19 | 1.6 | 16 | 4.2 | 16 | 3.2 | 2 | 17 | 5.3 | – |
| CN(C)c1ccc(-c2cc(-c3ccccc3)[s+]c(-c3ccc(N)cc3)c2)cc1.F[P-](F)(F)(F)(F)F | 0 | 0.9 | 5.3 | – | 14 | 24 | 70 | 14 | 17 | 19 | 0.31 | 7 | 20 | 0.37 | – |

The next lines start with results.

| logP at 5 h [1] | Activity [2] [nmol/min] | IC50 [3] [µM] | Activity [16] [nmol/min] | SMILES | EC50 [4] [µM] | permeability [5] [%] | Ratio [6] | inhibition at 25 µM [7] [%] | permeability [8] [×10⁻⁶ cm/s] | permeability [9] [%] | Papp [11] [×10⁻⁶ cm/s] | inhibition at 5 µM [12] [%] | permeability [14] [%] | permeability [17] [×10⁻⁶ cm/s] | other results |
| --- | --- | --- | --- | --- | --- | --- | --- | --- | --- | --- | --- | --- | --- | --- | --- |
| 1.2 | 2.5 | > 100 | 1.37 | CCCc1cc(-c2ccc(N(C)C)cc2)cc(-c2ccc(N(C)C)cc2)[s+]1.[I-] | 9.8 | 11 | 390 | 87 | 37 | 8 | 2.2 | 15 | 11 | 0.15 | Activity [10]: > 60; Kapp [13]: 2.2 ×10⁻⁶ M; Activity [15]: inactive |
| 1.6 | – | – | – | CN(C)c1ccc(-c2cc(-c3ccc(N(C)C)cc3)[se+]c(C(C)(C)C)c2)cc1.[I-] | 6.7 | 26 | 161 | 67 | 29 | 37 | 0.28 | 23 | 23 | 0.23 | – |
| 2.3 | 0.4 | 55 | – | CN(C)c1ccc(-c2cc(-c3ccc(N4CCOCC4)cc3)[se+]c(-c3ccc(N4CCOCC4)cc3)c2)cc1 | – | – | – | – | – | – | – | – | – | – | – |
| 1.3 | 1 | 3.1 | – | c1ccc(-c2cc(-c3ccc(N4CCOCC4)cc3)[s+]c(-c3ccc(N4CCOCC4)cc3)c2)cc1 | – | – | – | – | – | – | – | – | – | – | – |
| 0.1 | 1.3 | 1 | 0.74 | CCc1cc(-c2ccc(N(C)C)cc2)cc(-c2ccc(N(C)C)cc2)[s+]1 | – | – | – | – | – | – | – | – | – | – | – |
| 1.2 | 0.9 | 5.7 | – | Cc1cc(-c2ccc(N(C)C)cc2)[s+]c(-c2ccc(N(C)C)cc2)c1 | – | – | – | – | – | – | – | – | – | – | – |
| 0.6 | 0.5 | 15 | 0.48 | Cc1cc(-c2ccc(N(C)C)cc2)cc(-c2ccc(N(C)C)cc2)[s+]1.[I-] | 16 | 25 | 14 | 74 | 5.1 | 24 | 0.42 | 13 | 17 | 0.58 | Activity [10]: > 60; Kapp [13]: 4.5 ×10⁻⁶ M |
| 1.5 | 1.4 | 0.88 | 0.7 | CN(C)c1ccc(-c2cc(-c3ccc(N(C)C)cc3)[s+]c(C(C)(C)C)c2)cc1.[I-] | 7.1 | 37 | 134 | 60 | 34 | 44 | 0.34 | 25 | 25 | 0.53 | Activity [10]: > 60; Kapp [13]: 4.7 ×10⁻⁷ M |
| 2.1 | 0 | 71 | 0.3 | Cc1cc(C)c(-c2cc(-c3ccc(N(C)C)cc3)[s+]c(-c3ccc(N(C)C)cc3)c2)c(C)c1 | – | – | – | – | – | – | – | – | – | – | – |
